Values of other authors in patent US20040053948A1, “Compounds, compositions and methods” (Cytokinetics, Inc., priority 2002, published 2004).

System: A549 cells
Settings: data provided by National Cancer Institute, Developmental Therapeutic Program

SMILES | GI50 [nM]
COc1cccc2c1C(=O)c1c(O)c3c(c(O)c1C2=O)C[C@@](O)(C(=O)CO)C[C@@H]3O[C@H]1C[C@H](N)[C@H](O)[C@H](C)O1 [doxorubicin] | 63
O=c1[nH]cc(F)c(=O)[nH]1 [5-fluorouracil] | 1000
NC(=O)NO [hydroxyurea] | 500000
CC(=O)O[C@H]1C(=O)[C@@]2(C)[C@H]([C@H](OC(=O)c3ccccc3)[C@]3(O)C[C@H](OC(=O)[C@H](O)[C@@H](NC(=O)c4ccccc4)c4ccccc4)C(C)=C1C3(C)C)[C@]1(OC(C)=O)CO[C@@H]1C[C@@H]2O [paclitaxel] | 4
